Bridge positions count the residues as written; N and C are the ends. Square brackets hold non-standard residues; d marks the D form. Peptide text beside a SMILES is read from it.
Assays:
Gram-positive bacteria [1] = test: minimum inhibitory concentration (MIC) assays against four types of Gram-positive bacteria; format: cell-based; details: for antibiotic activity in MIC assays, result in words: Gram-positive bacteria, mostly compared with Arg10-teixobactin; for MIC values: four species of Gram-positive bacteria; for MIC: four Gram-positive bacteria studied, homologues as TFA salts; for MIC values lower than those of Arg10-teixobactin (fold): relative to Arg10-teixobactin
Text: The antibiotic activity of Arg10-teixobactin and homologues was investigated in minimum inhibitory concentration (MIC) assays against four types of Gram-positive bacteria, as well as control substances, in order to elucidate the importance of various functionalities within teixobactin analogues and guide the rational design of new antimicrobial compounds (as summarized in Tables 1, 2 and 3 (FIGS. 5A, 5B, and 5C respectively). These MIC studies used vancomycin as a positive control and the Gram-negative bacterium E. coli as a negative control.

Gram-positive bacteria [2] = details: literature structure-activity studies; cited from earlier work
[3] = gel formation / solubility; format: physicochemical; details: propensity to form a gel
Description: In addition, according to many embodiments of the invention, teixobactin homologues can be functionalized at position 9 to improve solubility for easier or more efficient drug administration. For example, Arg10-teixobactin has the propensity to form a gel at concentrations as low as 5 mg/mL. This poor solubility will hamper the ability of Arg10-teixobactin or any other teixobactin derivative to be used as a drug because it will impede intravenous administration. […] More specifically, in some embodiments of the invention the water solubility of teixobactin analogues can be improved by functionalization of position 9 with polyethylene glycol (PEG) derivatives. In one embodiment, Ala9 is replaced with a PEG-containing amino acid, such as Gln(PEG6OMe), the derivative of Glu, in which the side chain has been coupled to H2NCH2CH2(OCH2CH2)5OMe.

Compound	antibiotic activity in MIC assays, result in words (Gram-positive bacteria [1])	also measured
Arg10Lys11-teixobactin	loss of activity	
Lys(Mca)9,Lys10-teixobactin		MIC values (Gram-positive bacteria [1]): 1-8 micrograms/mL
CC[C@H](C)[C@H](NC(=O)[C@@H](Cc1ccccc1)NC)C(=O)N[C@@H](CO)C(=O)N[C@H](CCC(N)=O)C(=O)N[C@@H](C(=O)N[C@H](C(=O)N[C@@H](CO)C(=O)N[C@H]1C(=O)N[C@@H](C)C(=O)N[C@@H](CCCNC(=N)N)C(=O)N[C@@H]([C@@H](C)CC)C(=O)O[C@H]1C)[C@@H](C)CC)[C@@H](C)CC [Arg10-teixobactin]		MIC (Gram-positive bacteria [1]): 1 to 4 µg/mL; activity relative to teixobactin in MIC assays (Gram-positive bacteria [2]): about an order of magnitude less active; concentration at which a gel forms [3]: ≥ 5000 µg/mL
Ala3,Lys10-teixobactin	diminished the activity of position 10 lysine analogue	
CC[C@H](C)[C@H](N)C(=O)N[C@@H](CO)C(=O)N[C@H]1C(=O)N[C@@H](C)C(=O)N[C@@H](CCCNC(=N)N)C(=O)N[C@@H]([C@@H](C)CC)C(=O)O[C@H]1C [short-Arg10-teixobactin] (H-IS[dT]ARI; ester 3-C)		MIC (Gram-positive bacteria [1]): > 32 µg/mL
D-allo-Ile11,Arg10-teixobactin	half as active	
Glu(PEG-Biotinyl)9,Lys10-teixobactin		MIC values (Gram-positive bacteria [1]): 2-16 micrograms/mL
dodecanoyl-Δ1-5-Arg10-teixobactin [lipobactin 1]	activity close to that of Arg10-teixobactin	
Lys10-teixobactin	comparable to those of vancomycin	MIC values lower than those of Arg10-teixobactin (fold) (Gram-positive bacteria [1]): 2-4 times
Ac-Δ1-5-Arg10-teixobactin	inactive	
D-Dap8,Arg10-teixobactin	comparable activity to Arg10-teixobactin	
Lys6Arg10-teixobactin	loss of activity	
ent-Arg10-teixobactin	comparable activity to Arg10-teixobactin	
Lys9Arg10-teixobactin		antibiotic activity in MIC assays, result in words (Gram-positive bacteria [1]; listed as Lys9,Arg10-teixobactin): proven activity
Ala7,Arg10-teixobactin	greatly diminished activity	
Orn10-teixobactin	excellent to satisfactory antimicrobial activity	
Chg6,Arg10,Chg11-teixobactin	slightly greater activity than Arg10-teixobactin	MIC values lower than those of Arg10-teixobactin (fold) (Gram-positive bacteria [1]): lower by a factor of two
